In patent US9334256B2, “Agents and methods for treating ischemic and other diseases” (NoNO INC., priority 2011, dated 2016):
“Also recorded” adds a separate entry of the source.

What was measured:
[1] = test system: rat brains subjected to concussive brain trauma; test: Fluid percussion injury (FPI) model, TTC staining of brain sections; type: in vivo; settings: applied prior to the injury or 1 hour after; 2-6 atm injury; FIG. 1
Experimental: Inhibitors of TRPM7 were tested for their ability to provide neuroprotection to rat brains subjected to concussive brain trauma using a rodent model of fluid percussion injury (FPI). FPI was performed as described in the literature using 350-370 g male Sprague Dawley rats (Charles River, St. Constant, Quebec, Canada). In brief, 24 h before injury, the animal was anesthetized using 2% halothane and 2:1 nitrous oxide:oxygen. A 4.8 mm craniotomy was made with its center between the bregma and lambda and between the sagittal suture and right temporal ridge. A modified Leur-loc fitting was attached over the craniotomy and cemented in place using Acron MC/R dental acrylic (GC America, Alsip, Ill.). The Leur-loc was filled with saline, and a small piece of gelfoam was inserted. The incision was sutured, and the animal was returned to its cage overnight if not used same day. The following day, the incision was reopened, cleaned, and the gelfoam was removed. […] Injury severity was recorded using an oscilloscope attached to a transducer, and by sectioning the brains and staining with 2,3,5-Triphenyltetrazolium chloride staining (TTC). […]
Likewise, TRPM7 inhibitors are also expected to provide neuroprotection to other types of brain injuries. […] TRPM7 inhibitors such as M21 were applied 1 hour after stretch injury and cells were assessed for survival by PI fluorescence 24 hours after the injury. […]

[2] = test system: rats subjected to lateral FPI; test: Rotarod performance after lateral FPI; type: in vivo, rat; settings: FIG. 4A
Text: (§1) Thus, M21 and TRPM7 inhibitors are effective treatments to reduce the damaging effects of neurotrauma, including concussions.

[3] = target: T1, TRPM7 ion channel (Mus musculus, UniProt Q923J1); test: Whole-cell patch clamp of TRPM7 currents in HEK293 cells; type: cell-based; settings: value shown = concentration at which the compound significantly inhibits the ion channel
T1 construct: expressed in transfected cells; host or cells: TRPM7-tet-on HEK293 cells
T1 sequence (Q923J1 whole entry): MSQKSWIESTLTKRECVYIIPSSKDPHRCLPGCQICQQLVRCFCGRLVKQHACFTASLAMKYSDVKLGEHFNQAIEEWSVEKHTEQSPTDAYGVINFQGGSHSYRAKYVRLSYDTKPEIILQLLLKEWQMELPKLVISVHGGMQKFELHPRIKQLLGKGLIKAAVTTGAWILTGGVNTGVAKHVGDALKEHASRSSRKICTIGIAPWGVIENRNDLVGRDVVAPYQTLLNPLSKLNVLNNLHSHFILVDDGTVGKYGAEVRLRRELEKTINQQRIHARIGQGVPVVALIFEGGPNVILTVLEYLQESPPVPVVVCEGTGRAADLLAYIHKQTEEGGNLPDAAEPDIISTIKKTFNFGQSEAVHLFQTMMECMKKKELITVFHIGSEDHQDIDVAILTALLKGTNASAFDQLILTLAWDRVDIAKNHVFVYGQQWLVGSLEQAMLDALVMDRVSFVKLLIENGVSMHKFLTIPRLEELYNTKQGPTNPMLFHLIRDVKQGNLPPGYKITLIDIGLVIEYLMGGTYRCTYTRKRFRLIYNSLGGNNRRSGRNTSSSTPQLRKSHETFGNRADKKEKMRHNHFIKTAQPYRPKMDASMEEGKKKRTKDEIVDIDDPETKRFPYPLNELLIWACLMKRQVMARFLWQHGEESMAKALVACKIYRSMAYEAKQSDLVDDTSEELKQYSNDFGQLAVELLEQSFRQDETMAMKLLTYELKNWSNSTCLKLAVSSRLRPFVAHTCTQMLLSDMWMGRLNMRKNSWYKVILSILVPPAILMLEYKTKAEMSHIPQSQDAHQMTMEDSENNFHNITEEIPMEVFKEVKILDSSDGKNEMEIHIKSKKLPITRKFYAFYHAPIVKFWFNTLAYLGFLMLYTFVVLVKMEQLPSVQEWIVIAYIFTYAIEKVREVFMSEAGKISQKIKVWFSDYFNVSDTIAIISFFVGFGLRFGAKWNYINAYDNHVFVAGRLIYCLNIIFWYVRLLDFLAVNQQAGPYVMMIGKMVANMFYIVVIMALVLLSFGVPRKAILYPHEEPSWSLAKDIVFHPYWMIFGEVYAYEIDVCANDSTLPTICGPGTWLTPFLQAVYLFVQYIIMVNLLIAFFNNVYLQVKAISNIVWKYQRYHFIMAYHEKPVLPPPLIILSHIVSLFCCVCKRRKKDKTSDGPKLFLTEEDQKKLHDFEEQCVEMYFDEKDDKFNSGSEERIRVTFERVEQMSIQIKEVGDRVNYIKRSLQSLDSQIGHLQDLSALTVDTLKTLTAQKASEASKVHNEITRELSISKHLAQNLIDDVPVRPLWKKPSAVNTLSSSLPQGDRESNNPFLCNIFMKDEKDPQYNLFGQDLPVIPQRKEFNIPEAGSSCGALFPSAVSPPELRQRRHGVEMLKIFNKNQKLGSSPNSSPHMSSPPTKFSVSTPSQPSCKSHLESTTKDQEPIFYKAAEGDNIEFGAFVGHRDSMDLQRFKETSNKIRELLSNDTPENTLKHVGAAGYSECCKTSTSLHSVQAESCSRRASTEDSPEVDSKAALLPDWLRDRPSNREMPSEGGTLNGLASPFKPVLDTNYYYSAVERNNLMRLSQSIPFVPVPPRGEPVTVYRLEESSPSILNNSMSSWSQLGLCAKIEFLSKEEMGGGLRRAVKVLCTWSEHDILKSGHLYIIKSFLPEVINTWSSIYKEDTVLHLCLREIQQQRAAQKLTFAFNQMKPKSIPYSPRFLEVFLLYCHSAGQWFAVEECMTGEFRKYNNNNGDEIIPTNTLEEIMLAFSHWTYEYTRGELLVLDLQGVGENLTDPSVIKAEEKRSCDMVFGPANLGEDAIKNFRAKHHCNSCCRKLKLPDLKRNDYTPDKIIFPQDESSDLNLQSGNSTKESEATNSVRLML
Experimental: To further understand the structure function relationships between the TRPM7 inhibitors identified in the TRPM7-dependent HEK death assay, the activity of a subset of these inhibitors described herein were tested for their ability to inhibit TRPM7 currents in cell systems. Whole-cell patch clamp recordings were used essentially as described to test the TRPM7 inhibitors in HEK293 cells, H9c2 cardiomyocytes and cultured neurons. […] Those that provide >10% inhibition of TRPM7 channel activity in the HEK293 cell system were labeled with the concentration tested (generally 5 uM). Thus, the compounds in this table marked with such a value are able to block the activity gof the TRPM7 ion channel. FIGS. 2A-C provide an example of this for the TRPM7 inhibitor 399 (Structure 9). […] Numbers in brackets indicate the number of independent tests, and the bars represent the SEM.
Whole-cell currents were recorded using an Axopatch 1D or MultiClamp 700B amplifier and were digitized at 10 kHz and low-pass filtered at 2 kHz, at room temperature. pClamp10 software was used for data acquisition and analysis. Patch electrodes were pulled from Borosilicate glass and fire polished to a resistance of 2-4 MΩ. All drugs were administrated directly to cell bodies under recording through the fast exchange perfusion system.
The intracellular solution (ICS) contains (mM) 145 Cs-methanesulfonate, 8 NaCl, l MgCl2, 4.1 CaCl2, 10 EGTA, and 10 HEPES, 5 ATP, pH at 7.4, with 300-305 mOsm. The extracellular solution (ECS) contains (mM) 140 NaCl, 5 KCl, 2 CaCl2, 20 HEPES, and 10 glucose, pH at 7.4 and with 315-320 mOsm.
Voltage stimuli lasting 250 ms were delivered at 5-s intervals with voltage ramps ranging from −100 to +100 mV. The current values at −80 mV and +80 mV on I-V curve represent the measures of inward and outward current respectively.
Table X and FIGS. 7-51 show screening data for several additional compounds that are variants of M5, M6 or M21. The synthesis of compounds of Table X and FIGS. 7-51 is shown in Appendices A-C. The compounds shown in FIGS. 7-51 can be related to the appropriate row of Table X by the compound number shown in the figures and in the first column of Table X. The compounds in Table X other than M5, M6 and M21 themselves, are believed to be novel. The Table provides a number identifying the compound, its structurer, molecular weight and its cluster (i.e., whether the compound resembles M5, M6 or M21). The three columns relations to PI uptake describe the results of screening the compounds in the type of assay from Example 1. […] The last two columns show an effect on proliferation of Weri retinoblastoma or HeLa cervical cancer cells. Inhibition of proliferation is a measure of anti-neoplastic activity. […] If no data is shown, no test was performed.

[4] = test system: rats subjected to lateral FPI; test: Distance traveled and activity post FPI; type: in vivo, rat; settings: FIG. 4B
Text: as §1

[5] = test system: neurons, hepatocytes, cardiomyocytes, retina; test: Survival after anoxia in cells and tissues; type: cell-based; settings: summary statement

## Cc1c(Cc2ccc(Cl)c(Cl)c2)c(=O)oc2cc(O)ccc12 [Compound M21]
[1]
  protection of rat brains from fluid percussion-induced neuronal damage: able to protect the brain from injuries sustained from concussive trauma; also recorded: significant protection
[2]
  time able to maintain balance on the Rotarod relative to injured animals treated with vehicle alone: twice the time
[2]; first day post injury, compared to FPI+Vehicle
  Rotarod performance (mean latency): near wild type levels of performance
[3]
  TRPM7 current: 5 μM (Those that provide >10% inhibition of TRPM7 channel activity in the HEK293 cell system were labeled with the concentration tested (generally 5 uM))
[4]
  distance traveled and activity post FPI: comparable to uninjured animals
[5]
  survival after anoxia: broadly effective in increasing survival after anoxia in various tissues
